The text below walks through data of patent publication US9145354B2, “Pharmaceutical compounds” (priority 2011, dated 2015).

Read-outs that look alike come from different tables or passages of the source.

One data set deals with full length NS3/4a (Hepatitis C virus genotype 1b (isolate BK) (HCV), UniProt P26663). The experiment in a line: NS3 Protease Assay (Example A), FRET-based. The data set is classed as biochemical. A digest of the protocol: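 Full-length NS3/4a, made in-house, with an NS4A/B-derived peptide substrate carrying QXL520 quencher and 5-FAMsp fluorophore. Buffer 50 mM Tris pH8, 20 mM DTT, 1% CHAPS, 10% glycerol, 5% DMSO. Fluorescence followed 30 min at room temperature; IC50 from initial rates of replicate curves.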

Data set [1] concerns HCV subgenomic replicon in Huh-7 cells. The experiment in a line: Replicon Assay (Example B), luciferase readout EC50. The data set is classed as cell-based. To be noted: Hepatitis C virus, Huh-7, replicon assay, luciferase readout; upper value of the cell pair; read-out: Assay B EC50. As to the method:
The activities of compounds of the invention against HCV in a cellular environment were analysed using a replicon assay as described below.
(§1) Thus, Huh-7 cells persistently infected with an HCV-RNA construct (Bartenschlager, R. Hepatitis C replicons: potential role for drug development. Nature Rev. Drug Discov. 1, 911-916 (2002)) comprising: 5′ and 3′ non-translated regions (NTR); the non-structural genes NS3 to NS5b; as well as the G418 drug resistance gene, neomycin, (for selection of cells carrying HCV replicon RNA) fused to the firefly Luciferase reporter gene (pFKI3889Iuc-ubi-neo/NS3-3′/ET) were used to determine the cell based antiviral activity of compounds using luciferase activity as an indirect readout of HCV RNA load. In this assay […] huh-7 cells persistently infected with the HCV subgenomic replicon construct above were plated/well in a 96 well tissue culture plate. The cells were allowed to attach overnight in DMEM medium supplemented with 10% FBS 1% NEAA, and 250 μg/ml gentamicin. The following day the medium was replaced with 200 μl/well of fresh medium as described above lacking gentamicin. Semilog dilutions of compounds in medium were then added to triplicate wells (non-edge) of the cultured cells to give a 0.1% DMSO final concentration. Plates were then incubated at 37° C. in an atmosphere of 5% CO2 and air for 72 h. […] The plate was then read at 535 nm (excitation) and 590 nm (emission) on a SpectraMax Gemini reader (Molecular Devices) to determine the number of viable cells by measuring the conversion of rezasurin (Alamar blue) to resorufin in response to mitochondrial activity. In order to determine the antiviral effect of these compounds EC50 values were determined by measuring the luciferase activity of the cells. Alamar blue solution was removed from the wells and replaced with 100 μl/well of medium along with 100 μl/well of Bright-Glo reagent and incubated at room temperature for 5 minutes before transferring 100 μl/well to a white bottom 96 well plate to read in a luminometer as described in the Bright-Glo Luciferase Assay System protocol (promega).
For orientation: A replicon is a self-replicating genome or part of one, used to study replication in cells.

Data set [2] is described as follows: Replicon Assay (Example B), Alamar Blue cytotoxicity CC50. The data set is classed as cell-based. To be noted: human, lower value of the cell pair.
From the text: as §1

[3] abbreviates: HCV NS3 protease assay, full length NS3/4a, read-out: Assay A IC50 (μM) average.
Setting [4] is: read-out: IC50 against the protease activity of the full length NS3/4a.

Sequence of full length NS3/4a (P26663 1027-1657): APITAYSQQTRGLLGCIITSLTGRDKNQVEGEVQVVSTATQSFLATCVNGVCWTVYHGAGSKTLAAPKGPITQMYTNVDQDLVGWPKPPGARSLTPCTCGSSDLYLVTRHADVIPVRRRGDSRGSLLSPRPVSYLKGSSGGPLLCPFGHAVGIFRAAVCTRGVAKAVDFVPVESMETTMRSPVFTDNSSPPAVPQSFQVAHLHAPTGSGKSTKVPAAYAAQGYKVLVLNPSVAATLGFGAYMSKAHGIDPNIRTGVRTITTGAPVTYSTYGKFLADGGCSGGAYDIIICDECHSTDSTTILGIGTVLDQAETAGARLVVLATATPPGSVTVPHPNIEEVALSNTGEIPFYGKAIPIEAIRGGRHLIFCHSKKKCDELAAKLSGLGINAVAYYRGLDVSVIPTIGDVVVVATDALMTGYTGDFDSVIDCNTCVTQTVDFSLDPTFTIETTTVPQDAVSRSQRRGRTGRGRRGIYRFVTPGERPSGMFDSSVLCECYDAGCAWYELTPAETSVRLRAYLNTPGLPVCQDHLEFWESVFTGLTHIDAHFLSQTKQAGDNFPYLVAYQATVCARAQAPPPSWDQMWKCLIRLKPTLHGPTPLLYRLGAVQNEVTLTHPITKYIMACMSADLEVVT

One may read the EC50 as the concentration at which the effect is half-maximal. As a reminder, the CC50 is the concentration at which the toxic effect on the cells reaches its halfway point. For `CC[C@H](NCCO)c1ccc(Cl)c(C(=O)c2ccccc2)c1F` [Example 171, 2-{[(1S)-1-(3-benzoyl-4-chloro-2-fluorophenyl)propyl]-amino}ethan-1-ol], the results for the IC50 at full length NS3/4a (setting [3]) and at full length NS3/4a (setting [4]) were 0.056 µM and < 1 µM, respectively. The EC50 in data set [1] is > 3 µM. Besides, the CC50 at 72 h in data set [2] was > 3 µM.
As for `CC[C@@H](NCC1(C(N)=O)CC1)c1ccc(Cl)c(C(=O)c2cccnc2)c1F` [Example 168, 1-({[(1R)-1-{4-Chloro-2-fluoro-3-[(pyridin-3-yl)carbonyl]phenyl}propyl]amino}methyl)-cyclopropane-1-carboxamide], the IC50 on full length NS3/4a (setting [3]) is 0.55 µM; at full length NS3/4a (setting [4]) it was < 1 µM. Besides, the 50% effective concentration (EC50) in data set [1] is > 3 µM. Besides, the cytotoxic concentration (CC50) at 72 h in data set [2] is > 3 µM.
Take `C[C@@H](CC(N)=O)N[C@@H](c1ccc(Cl)c(C(=O)c2ccccc2)c1F)C1CC1` [Example 103, (3S)-3-{[(R)-(3-benzoyl-4-chloro-2-fluorophenyl)-(cyclopropyl)-methyl]-amino}-butanamide]: the IC50 is 0.077 µM at full length NS3/4a (setting [3]) and < 1 µM at full length NS3/4a (setting [4]). The EC50 in data set [1] is 0.0058 µM. In addition, the CC50 at 72 h in data set [2] is > 3 µM.
With `C=CC[C@@H](N[C@@H](C)CC(N)=O)c1ccc(Cl)c(C(=O)c2ccc(N)nc2)c1F` [Example 256, (3S)-3-{[(1R)-1-{3-[(6-aminopyridin-3-yl)carbonyl]-4-chloro-2-fluorophenyl}but-3-en-1-yl]amino} butanamide], the IC50 on full length NS3/4a (setting [3]) came to 0.47 µM. Also, the EC50 in data set [1] stood at 0.046 µM. Further, in data set [2], the CC50 at 72 h was > 1 µM.
For `CC[C@@H](N[C@@H](C)CC(N)=O)c1ccc(Cl)c(C(=O)c2cncc(N)c2)c1F` [Example 145, (3S)-3-{[(1R)-1-{3-[(5-aminopyridin-3-yl)carbonyl]-4-chloro-2-fluorophenyl}propyl]-amino}butanamide] the same measures were 0.84 µM, 1 µM and > 10 µM.
For `C[C@@H](CC(N)=O)N[C@@H](c1ccc(Cl)c(C(=O)c2ccc(N)cn2)c1F)C1CC1` [Example 237, (3S)-3-{[(R)-{3-[(5-aminopyridin-2-yl)carbonyl]-4-chloro-2-fluorophenyl}(cyclopropyl)methyl]amino}butanamide], in that order: 0.31 µM, 0.047 µM and > 1 µM.
In the case of `CC[C@@H](N[C@@H](C)CC(N)=O)c1ccc(Cl)c(C(=O)c2ccc(C#N)c(OC)c2)c1F` [Example 235, (3S)-3-{[(1R)-1-{4-chloro-3-[(4-cyano-3-methoxyphenyl)carbonyl]-2-fluorophenyl}propyl]amino} butanamide], the IC50 at full length NS3/4a (setting [3]) was 0.13 µM; on full length NS3/4a (setting [4]) it was < 1 µM. In data set [1], the concentration for a half-maximal effect (EC50) was found to be 0.0088 µM. Besides, the CC50 at 72 h in data set [2] is > 1 µM.
Turning to `CC[C@@H](N[C@@H](C)CC(N)=O)c1ccc(Cl)c(C(=O)c2ccc3c(c2)OCCN3)c1F` [Example 249, (3S)-3-{[(1R)-1-{4-chloro-3-[(3,4-dihydro-2H-1,4-benzoxazin-7-yl)carbonyl]-2-fluorophenyl}propyl]amino} butanamide], the IC50 at full length NS3/4a (setting [3]) worked out at 0.27 µM. For the same compound, the half-maximal effective concentration (EC50) in data set [1] came out at 0.033 µM. The CC50 at 72 h in data set [2] was > 1 µM.
As to `CC[C@@H](N[C@@H](C)CC(N)=O)c1ccc(Cl)c(C(=O)c2ccc(-n3cccn3)nc2)c1F` [Example 139, (3S)-3-{[(1R)-1-(4-chloro-2-fluoro-3-{[6-(1H-pyrazol-1-yl)pyridin-3-yl]carbonyl}phenyl)-propyl]amino}-butanamide], the IC50 at full length NS3/4a (setting [3]) is 0.33 µM; at full length NS3/4a (setting [4]), < 1 µM. Further, the half-maximal effective concentration (EC50) in data set [1] turned out to be 0.42 µM. Further, the CC50 at 72 h in data set [2] is > 3 µM.
As for `CC[C@@H](N[C@@H](C)CC(N)=O)c1ccc(OC)c(C(=O)c2ccccc2)c1F` [Example 152, (3S)-3-{[(1R)-1-(3-benzoyl-2-fluoro-4-methoxyphenyl)propyl]-amino}butanamide], the IC50 on full length NS3/4a (setting [3]) is 0.051 µM. In data set [1], the EC50 is 0.066 µM. Besides, the CC50 at 72 h in data set [2] was > 10 µM.
For `CC[C@@H](N[C@@H](C)CC(N)=O)c1ccc(OC)c(C(=O)c2ccc(N)c(C)c2)c1F` [Example 273, (3S)-3-{[(1R)-1-{3-[(4-amino-3-methylphenyl)carbonyl]-2-fluoro-4-methoxyphenyl}propyl]amino}butanamide] the same measures were 0.14 µM, 0.027 µM and > 3 µM.
For the compound `CC[C@@H](N[C@@H](C)CC(N)=O)c1ccc(Cl)c(C(=O)c2ccc(F)c(F)c2)c1F` [Example 90, (3S)-3-{[(1R)-1-{4-chloro-3-[(3,4-difluorophenyl)carbonyl]-2-fluorophenyl}propyl]amino}-butanamide], the IC50 at full length NS3/4a (setting [3]) is 0.13 µM. Besides, the EC50 in data set [1] came to 0.38 µM. Moreover, in data set [2], the CC50 at 72 h is > 3 µM.
For `[2H]C([2H])([2H])C([2H])([2H])[C@@H](N[C@@H](C)CC(N)=O)c1ccc(Cl)c(C(=O)c2ccc3c(c2)OCC(=O)N3)c1F` [Example 280, (3S)-3-{[(1R)-1-{4-chloro-2-fluoro-3-[(3-oxo-3,4-dihydro-2H-1,4-benzoxazin-7-yl)carbonyl]phenyl}(2,2,3,3,3-pentadeuteryl)propyl]amino} butanamide] the same measures were 0.3 µM, 0.025 µM and > 3 µM.
For `COc1ccc([C@H](N[C@@H](C)CC(N)=O)C2CC2)c(F)c1C(=O)c1cccc(F)c1` [Example 224, (3S)-3-{[(R)-cyclopropyl({2-fluoro-3-[(3-fluorophenyl)carbonyl]-4-methoxyphenyl})methyl]amino}butanamide] the same measures were 0.081 µM, 0.19 µM and > 3 µM.
For `C[C@@H](CC(N)=O)N[C@@H](c1ccc(Cl)c(C(=O)c2ccc(C#N)cn2)c1F)C1CC1` [Example 238, (3S)-3-{[(R)-{4-chloro-3-[(5-cyanopyridin-2-yl)carbonyl]-2-fluorophenyl}(cyclopropyl)methyl]amino}butanamide], in that order: 0.11 µM, 0.03 µM and > 1 µM.
As for `CC[C@@H](N[C@@H](C)CC(N)=O)c1ccc(Cl)c(C(=O)c2ccc(N)cn2)c1F` [Example 149, (3S)-3-{[(1R)-1-{3-[(5-aminopyridin-2-yl)carbonyl]-4-chloro-2-fluorophenyl}propyl]amino}-butanamide], on full length NS3/4a (setting [3]), the IC50 turned out to be 0.2 µM. Besides, the 50% effective concentration (EC50) in data set [1] is 0.039 µM. In addition, the CC50 at 72 h in data set [2] was > 10 µM.
For `CC[C@@H](N[C@@H](C)C1(C(N)=O)CC1)c1ccc(Cl)c(C(=O)c2cccnc2)c1F` [Example 132, 1-[(1S)-1-{[(1R)-1-{4-chloro-2-fluoro-3-[(pyridin-3-yl)carbonyl]phenyl}propyl]amino}ethyl]cyclopropane-1-carboxamide], in that order: 0.14 µM, 0.025 µM and > 3 µM.
For `[2H]C([2H])([2H])C([2H])([2H])[C@@H](N[C@@H](C)CC(N)=O)c1ccc(Cl)c(C(=O)c2ccc(N)nc2)c1F` [Example 265, (3S)-3-{[(1R)-1-{3-[(6-aminopyridin-3-yl)carbonyl]-4-chloro-2-fluorophenyl}(2,2,3,3,3-deutero)propyl]amino}-butanamide], in that order: 0.13 µM, 0.025 µM and > 3 µM.
Consider `CC[C@@H](N[C@@H](C)CC(N)=O)c1ccc(Cl)c(C(=O)c2cccc(C#N)c2)c1F` [Example 101, (3S)-3-{[(1R)-1-{4-chloro-3-[(3-cyanophenyl)carbonyl]-2-fluorophenyl}propyl]amino}-butanamide], for which the figures for the IC50 on full length NS3/4a (setting [3]) and at full length NS3/4a (setting [4]) were 0.11 µM and < 1 µM, respectively. Further, in data set [1], the EC50 came out at 0.16 µM. The CC50 at 72 h in data set [2] is > 3 µM.
For `CCC[C@@H](N[C@@H](C)CC(N)=O)c1ccc(Cl)c(C(=O)c2ccc(N)nc2)c1F` [Example 258, (3S)-3-{[(1R)-1-{3-[(6-aminopyridin-3-yl)carbonyl]-4-chloro-2-fluorophenyl}butyl]amino} butanamide], in that order: 0.28 µM, < 1 µM, 0.02 µM and > 1 µM.
